Laboratory results published in patent publication EP2319852A1, “Triphenylphosphine derivatives” (Universitat Autònoma De Barcelona, priority 2009, dated 2011).
Values belong to the compound of their own block, whether it stands above or below them.

How the values were obtained:
[1] = Aerial oxidation of the phosphines in aqueous solution, followed by 31P{1H} NMR; format: physicochemical; details: for Oxidation percentage over time: distilled water, 5.10^-2 mM, open to air, vigorous stirring; for oxidize in the air: 5·10^-2 mM aqueous solution, room temperature
Protocol: 4. Aerial oxidation of the phosphines in aqueous solution
Solutions in distilled water (1 mL, 5.10^-2 mM ) of the phosphines represented below were prepared with the aim of comparing their inertness against aerial oxidation. The solutions were kept opened to air under vigorous stirring for 120 h. Aliquots were taken and analyzed by ^31P{^1H} NMR in order to quantify the oxidation progress.

[2] = Determination of water solubility of the sodium salts of the phosphines; format: physicochemical; details: saturated supernatant evaporated to dryness and weighed
Protocol: 3. Determination of water solubility of trifluoromethylated sulfonated phosphines of Formula (I)
Oversaturated aqueous solutions of the sodium salts of the phosphines of Formula (I) were prepared. The supernatant solution was ultracentrifugated, and then filtered through a nylon filter, a measured weight of this solution was evaporated to dryness and the solid residue was weighed.

SMILES: O=S(=O)([O-])c1cccc(P(c2ccccc2)c2cccc(S(=O)(=O)[O-])c2)c1.[Na+].[Na+] [Na2TPPDS]
Oxidation percentage over time ([1]; 0 h): 0%
oxidize in the air ([1]; 16 h): about 5%
Oxidation percentage over time ([1]; 16 h): 6%
Oxidation percentage over time ([1]; 40 h): 33%
Oxidation percentage over time ([1]; 120 h): 100%

SMILES: O=S(=O)([O-])c1cccc(P(c2ccccc2)c2ccccc2)c1.[Na+] [NaTPPMS, triphenylphosphine monosulfonate]
Oxidation percentage over time ([1]; 0 h): 0%
oxidize in the air ([1]; 16 h): about 5%
Oxidation percentage over time ([1]; 16 h): 4%
Oxidation percentage over time ([1]; 40 h): 25%
Oxidation percentage over time ([1]; 120 h): 68%

SMILES: O=S(=O)(O)c1cccc(P(c2cccc(S(=O)(=O)O)c2)c2ccccc2C(F)(F)F)c1 [Phosphine 3]
solubility thermodynamic [2]: 30 mg/mL

SMILES: O=S(=O)(O)c1cccc(P(c2ccccc2)c2ccccc2C(F)(F)F)c1 (centres unmarked) [Phosphine 9]
solubility thermodynamic [2]: 210 mg/mL

Next, values leading:

solubility thermodynamic [2]: 2 to 12 mg/mL
SMILES: O=S(=O)(O)c1cccc(P(c2ccc(C(F)(F)F)cc2)c2ccc(C(F)(F)F)cc2)c1 [Phosphine 4]

solubility thermodynamic [2]: 2 to 12 mg/mL
SMILES: O=S(=O)(O)c1cccc(P(c2cc(C(F)(F)F)cc(C(F)(F)F)c2)c2cc(C(F)(F)F)cc(C(F)(F)F)c2)c1 [Phosphine 5]

solubility thermodynamic [2]: 2 to 12 mg/mL
SMILES: O=S(=O)(O)c1cccc(P(c2ccccc2C(F)(F)F)c2ccccc2C(F)(F)F)c1 [Phosphine 6]

solubility thermodynamic [2]: 500 mg/mL
SMILES: O=S(=O)(O)c1cccc(P(c2ccccc2)c2ccc(C(F)(F)F)cc2)c1 (centres unmarked) [Phosphine 7]

solubility thermodynamic [2]: > 1000 mg/mL
SMILES: O=S(=O)(O)c1cccc(P(c2ccccc2)c2cc(C(F)(F)F)cc(C(F)(F)F)c2)c1 (centres unmarked) [Phosphine 8]
